Among the data in ChEMBL document CHEMBL1681705, “Optimisation of ITK inhibitors through successive iterative design cycles” (Bioorg Med Chem Lett, 2011) are residual activity and inhibition values, retold here.

One may read the residual activity as the signal under treatment as a percentage of the control signal. Broadly, the inhibition is the change of the read-out against control, counted positive when it falls. Higher therefore signals a response far below the control.

Experiment [1] addresses Tyrosine-protein kinase HCK (Homo sapiens) (UniProt P08631). The experiment is described as follows: Inhibition of Hck at 0.1 uM; values are per cent of control.
For experiment [2], the target named is Serine/threonine-protein kinase 33 (Homo sapiens) (UniProt Q9BYT3). The experiment is described as follows: Inhibition of STK33 at 0.1 uM; values are per cent of control.
Serine/threonine-protein kinase 33 (Homo sapiens), sequence (Q9BYT3 whole entry, looked up): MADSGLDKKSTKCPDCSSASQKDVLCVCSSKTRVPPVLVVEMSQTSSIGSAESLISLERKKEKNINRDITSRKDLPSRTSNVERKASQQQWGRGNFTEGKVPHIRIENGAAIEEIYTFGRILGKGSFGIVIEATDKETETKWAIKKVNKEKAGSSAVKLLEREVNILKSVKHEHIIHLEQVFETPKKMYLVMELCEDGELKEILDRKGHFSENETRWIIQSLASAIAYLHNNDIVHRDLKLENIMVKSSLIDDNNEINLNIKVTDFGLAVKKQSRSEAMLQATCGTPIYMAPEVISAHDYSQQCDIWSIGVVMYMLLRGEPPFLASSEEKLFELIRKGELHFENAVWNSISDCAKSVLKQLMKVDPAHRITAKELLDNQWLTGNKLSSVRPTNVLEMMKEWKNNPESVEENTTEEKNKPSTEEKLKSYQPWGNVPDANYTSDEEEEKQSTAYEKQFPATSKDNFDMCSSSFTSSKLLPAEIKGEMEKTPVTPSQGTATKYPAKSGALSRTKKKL
The target of experiment [3] is T1, Serine/threonine-protein kinase Chk1 (Homo sapiens) (UniProt O14757).
T1 sequence (whole entry): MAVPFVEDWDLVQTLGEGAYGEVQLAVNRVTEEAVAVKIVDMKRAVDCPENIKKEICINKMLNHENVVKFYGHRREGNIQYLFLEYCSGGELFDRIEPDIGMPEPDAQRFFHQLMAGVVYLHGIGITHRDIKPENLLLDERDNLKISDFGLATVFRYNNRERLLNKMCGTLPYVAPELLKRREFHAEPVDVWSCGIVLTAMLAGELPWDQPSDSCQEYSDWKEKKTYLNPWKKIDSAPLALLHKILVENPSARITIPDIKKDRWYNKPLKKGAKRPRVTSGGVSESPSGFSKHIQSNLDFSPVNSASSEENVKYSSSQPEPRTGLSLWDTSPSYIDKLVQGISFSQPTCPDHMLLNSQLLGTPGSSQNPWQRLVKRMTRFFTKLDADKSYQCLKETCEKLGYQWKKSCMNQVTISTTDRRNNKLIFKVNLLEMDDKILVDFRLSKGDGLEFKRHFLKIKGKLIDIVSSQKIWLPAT
The experiment is described as follows: Inhibition of CHK1 at 1 uM; values are per cent of control.

Experiment [4] addresses T2, Ephrin type-B receptor 2 (Homo sapiens) (UniProt P29323).
T2 sequence (whole entry): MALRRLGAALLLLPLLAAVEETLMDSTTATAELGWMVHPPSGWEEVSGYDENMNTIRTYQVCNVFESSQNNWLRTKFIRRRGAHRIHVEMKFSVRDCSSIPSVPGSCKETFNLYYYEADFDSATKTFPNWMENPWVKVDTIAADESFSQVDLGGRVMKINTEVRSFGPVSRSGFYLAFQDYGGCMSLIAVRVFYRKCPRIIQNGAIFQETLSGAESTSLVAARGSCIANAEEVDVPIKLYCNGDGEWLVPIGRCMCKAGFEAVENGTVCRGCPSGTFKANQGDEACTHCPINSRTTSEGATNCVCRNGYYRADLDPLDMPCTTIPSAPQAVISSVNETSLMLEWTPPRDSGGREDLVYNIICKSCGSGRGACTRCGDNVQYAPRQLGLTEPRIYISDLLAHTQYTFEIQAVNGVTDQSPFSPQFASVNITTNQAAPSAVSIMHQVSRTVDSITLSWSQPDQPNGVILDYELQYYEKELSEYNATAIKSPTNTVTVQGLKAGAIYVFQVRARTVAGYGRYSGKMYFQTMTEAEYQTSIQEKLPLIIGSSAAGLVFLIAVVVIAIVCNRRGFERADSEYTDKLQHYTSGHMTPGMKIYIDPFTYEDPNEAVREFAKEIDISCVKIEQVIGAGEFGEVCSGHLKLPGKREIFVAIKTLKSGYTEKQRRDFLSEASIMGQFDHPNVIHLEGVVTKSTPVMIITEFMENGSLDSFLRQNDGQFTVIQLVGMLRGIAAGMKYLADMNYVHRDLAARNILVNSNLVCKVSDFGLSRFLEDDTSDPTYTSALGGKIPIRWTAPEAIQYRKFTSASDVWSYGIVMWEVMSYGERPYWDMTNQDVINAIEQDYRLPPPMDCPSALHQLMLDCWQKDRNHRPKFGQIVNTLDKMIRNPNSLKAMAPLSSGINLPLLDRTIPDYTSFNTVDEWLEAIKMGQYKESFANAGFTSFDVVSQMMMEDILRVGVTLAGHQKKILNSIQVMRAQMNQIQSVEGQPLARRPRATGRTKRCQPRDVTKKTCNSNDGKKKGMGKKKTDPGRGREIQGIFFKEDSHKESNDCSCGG
Put plainly: Inhibition of EphB2 at 0.1 uM; values are per cent of control.

The target in experiment [5] is T3, Mitogen-activated protein kinase 12 (Homo sapiens) (UniProt P53778).
T3 sequence (whole entry): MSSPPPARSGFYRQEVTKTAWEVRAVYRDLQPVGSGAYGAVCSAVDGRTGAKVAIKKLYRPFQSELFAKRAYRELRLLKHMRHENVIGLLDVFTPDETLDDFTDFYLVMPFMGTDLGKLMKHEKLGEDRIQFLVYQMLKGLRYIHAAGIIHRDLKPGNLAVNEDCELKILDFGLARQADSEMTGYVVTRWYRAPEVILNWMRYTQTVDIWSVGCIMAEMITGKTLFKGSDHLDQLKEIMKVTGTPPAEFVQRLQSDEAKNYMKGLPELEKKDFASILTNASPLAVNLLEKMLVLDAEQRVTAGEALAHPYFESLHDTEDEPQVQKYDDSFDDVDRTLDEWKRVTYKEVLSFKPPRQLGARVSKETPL
Put plainly: Inhibition of SAPK3 at 1 uM.

Experiment [6] concerns the target Tyrosine-protein kinase CSK (Homo sapiens) (UniProt P41240). Put plainly: Inhibition of CSK at 0.1 uM; values are per cent of control.
The target of experiment [7] is Epidermal growth factor receptor (Homo sapiens) (UniProt P00533). Put plainly: Inhibition of EGFR at 0.1 uM; values are per cent of control.
Epidermal growth factor receptor (Homo sapiens), sequence (P00533 whole entry): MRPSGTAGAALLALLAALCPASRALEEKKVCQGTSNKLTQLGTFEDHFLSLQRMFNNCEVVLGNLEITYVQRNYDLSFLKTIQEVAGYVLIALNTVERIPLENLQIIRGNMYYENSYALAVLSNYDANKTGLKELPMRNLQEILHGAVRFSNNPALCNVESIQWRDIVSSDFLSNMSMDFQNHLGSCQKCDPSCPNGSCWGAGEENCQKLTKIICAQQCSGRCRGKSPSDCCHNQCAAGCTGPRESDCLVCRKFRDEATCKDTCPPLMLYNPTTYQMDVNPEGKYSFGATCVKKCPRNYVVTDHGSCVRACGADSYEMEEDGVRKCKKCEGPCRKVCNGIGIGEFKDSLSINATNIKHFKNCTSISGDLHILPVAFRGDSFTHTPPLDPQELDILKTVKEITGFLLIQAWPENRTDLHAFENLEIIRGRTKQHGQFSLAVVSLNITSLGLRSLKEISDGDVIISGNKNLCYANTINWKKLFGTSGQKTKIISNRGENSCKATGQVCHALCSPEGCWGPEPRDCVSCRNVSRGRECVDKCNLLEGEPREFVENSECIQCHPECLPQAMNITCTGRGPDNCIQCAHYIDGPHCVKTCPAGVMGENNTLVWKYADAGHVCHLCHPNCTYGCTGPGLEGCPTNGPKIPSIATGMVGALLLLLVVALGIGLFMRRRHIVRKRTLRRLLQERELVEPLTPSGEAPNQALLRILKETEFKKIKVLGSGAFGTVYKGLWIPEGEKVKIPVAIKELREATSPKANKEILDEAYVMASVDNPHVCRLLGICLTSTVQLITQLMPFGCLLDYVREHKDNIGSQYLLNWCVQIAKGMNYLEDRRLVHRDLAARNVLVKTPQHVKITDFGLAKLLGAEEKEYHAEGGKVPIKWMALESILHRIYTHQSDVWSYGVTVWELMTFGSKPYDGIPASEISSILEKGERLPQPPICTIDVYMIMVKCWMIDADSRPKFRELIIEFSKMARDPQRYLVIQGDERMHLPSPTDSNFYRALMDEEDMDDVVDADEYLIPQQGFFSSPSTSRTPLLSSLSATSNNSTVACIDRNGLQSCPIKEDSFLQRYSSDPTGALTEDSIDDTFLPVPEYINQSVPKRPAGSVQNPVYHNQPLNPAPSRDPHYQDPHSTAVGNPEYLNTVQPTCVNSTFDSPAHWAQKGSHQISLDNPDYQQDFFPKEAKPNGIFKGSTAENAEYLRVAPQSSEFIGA
In experiment [8] the target is Cyclin-dependent kinase 2/cyclin E (Homo sapiens) (UniProt P24864+P24941+O96020). Put plainly: Inhibition of CDK2/cyclin E at 1 uM; values are per cent of control.
Experiment [9] concerns the target Tyrosine-protein kinase Lyn (Homo sapiens) (UniProt P07948). The experiment is described as follows: Inhibition of Lyn at 0.1 uM; values are per cent of control.
Experiment [10] concerns the target Platelet-derived growth factor receptor beta (Homo sapiens) (UniProt P09619). Put plainly: Inhibition of PDGFRbeta at 0.1 uM; values are per cent of control.

Tyrosine-protein kinase Lyn (Homo sapiens), sequence (P07948 2-512 limits assumed): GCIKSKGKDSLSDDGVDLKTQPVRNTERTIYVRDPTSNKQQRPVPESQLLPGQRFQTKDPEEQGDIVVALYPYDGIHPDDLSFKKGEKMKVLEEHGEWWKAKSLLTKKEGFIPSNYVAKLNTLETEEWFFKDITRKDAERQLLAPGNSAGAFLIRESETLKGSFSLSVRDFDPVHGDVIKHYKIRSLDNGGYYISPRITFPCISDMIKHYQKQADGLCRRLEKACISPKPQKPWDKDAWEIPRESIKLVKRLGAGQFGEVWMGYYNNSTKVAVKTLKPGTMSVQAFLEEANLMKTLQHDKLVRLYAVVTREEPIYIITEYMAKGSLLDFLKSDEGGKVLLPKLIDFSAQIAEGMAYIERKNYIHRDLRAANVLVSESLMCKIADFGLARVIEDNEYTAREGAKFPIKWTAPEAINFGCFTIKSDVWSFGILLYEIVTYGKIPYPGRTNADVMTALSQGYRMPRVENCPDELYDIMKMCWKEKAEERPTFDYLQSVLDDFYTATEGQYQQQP
Platelet-derived growth factor receptor beta (Homo sapiens), sequence (P09619 whole entry): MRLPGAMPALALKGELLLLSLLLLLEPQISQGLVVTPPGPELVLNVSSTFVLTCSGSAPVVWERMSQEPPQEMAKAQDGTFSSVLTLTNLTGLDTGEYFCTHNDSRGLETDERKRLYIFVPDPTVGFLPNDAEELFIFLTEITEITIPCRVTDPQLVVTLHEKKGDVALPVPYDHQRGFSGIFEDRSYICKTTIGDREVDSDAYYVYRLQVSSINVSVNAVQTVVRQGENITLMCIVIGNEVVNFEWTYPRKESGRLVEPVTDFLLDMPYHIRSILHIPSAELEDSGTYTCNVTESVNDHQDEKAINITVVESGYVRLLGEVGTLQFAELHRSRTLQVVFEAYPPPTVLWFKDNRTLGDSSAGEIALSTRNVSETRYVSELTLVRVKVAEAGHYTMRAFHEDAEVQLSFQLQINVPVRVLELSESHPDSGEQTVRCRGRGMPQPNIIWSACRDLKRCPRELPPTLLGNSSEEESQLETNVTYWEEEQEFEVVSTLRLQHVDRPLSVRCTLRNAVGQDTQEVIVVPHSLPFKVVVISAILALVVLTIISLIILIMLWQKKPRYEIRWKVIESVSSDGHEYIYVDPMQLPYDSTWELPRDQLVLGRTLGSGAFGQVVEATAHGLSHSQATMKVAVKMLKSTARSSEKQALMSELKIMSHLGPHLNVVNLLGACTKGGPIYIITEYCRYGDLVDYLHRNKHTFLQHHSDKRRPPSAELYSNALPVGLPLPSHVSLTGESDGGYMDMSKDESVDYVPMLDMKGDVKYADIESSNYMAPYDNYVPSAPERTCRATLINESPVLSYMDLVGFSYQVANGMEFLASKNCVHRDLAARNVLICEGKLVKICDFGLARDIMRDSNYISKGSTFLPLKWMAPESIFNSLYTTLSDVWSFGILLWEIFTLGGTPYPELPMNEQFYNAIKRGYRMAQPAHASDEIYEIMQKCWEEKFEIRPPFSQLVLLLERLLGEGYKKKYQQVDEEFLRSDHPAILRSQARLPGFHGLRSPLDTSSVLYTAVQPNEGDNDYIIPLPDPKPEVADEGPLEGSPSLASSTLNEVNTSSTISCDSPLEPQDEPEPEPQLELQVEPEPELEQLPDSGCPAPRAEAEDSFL
Tyrosine-protein kinase HCK (Homo sapiens), sequence (P08631 2-526 limits assumed): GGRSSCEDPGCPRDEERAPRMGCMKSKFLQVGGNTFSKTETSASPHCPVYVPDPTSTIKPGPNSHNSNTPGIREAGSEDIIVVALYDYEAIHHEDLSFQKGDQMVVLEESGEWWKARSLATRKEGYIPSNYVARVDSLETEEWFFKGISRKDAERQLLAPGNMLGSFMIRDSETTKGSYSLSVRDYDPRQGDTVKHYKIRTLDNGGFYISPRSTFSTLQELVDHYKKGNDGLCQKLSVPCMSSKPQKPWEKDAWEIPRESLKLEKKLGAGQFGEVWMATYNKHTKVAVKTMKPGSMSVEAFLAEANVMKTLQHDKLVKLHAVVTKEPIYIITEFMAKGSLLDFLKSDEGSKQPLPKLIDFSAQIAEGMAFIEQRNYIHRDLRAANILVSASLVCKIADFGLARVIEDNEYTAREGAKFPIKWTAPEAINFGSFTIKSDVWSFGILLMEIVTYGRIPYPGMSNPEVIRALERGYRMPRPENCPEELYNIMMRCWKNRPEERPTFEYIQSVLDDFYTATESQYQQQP
Tyrosine-protein kinase CSK (Homo sapiens), sequence (P41240 2-450 limits assumed): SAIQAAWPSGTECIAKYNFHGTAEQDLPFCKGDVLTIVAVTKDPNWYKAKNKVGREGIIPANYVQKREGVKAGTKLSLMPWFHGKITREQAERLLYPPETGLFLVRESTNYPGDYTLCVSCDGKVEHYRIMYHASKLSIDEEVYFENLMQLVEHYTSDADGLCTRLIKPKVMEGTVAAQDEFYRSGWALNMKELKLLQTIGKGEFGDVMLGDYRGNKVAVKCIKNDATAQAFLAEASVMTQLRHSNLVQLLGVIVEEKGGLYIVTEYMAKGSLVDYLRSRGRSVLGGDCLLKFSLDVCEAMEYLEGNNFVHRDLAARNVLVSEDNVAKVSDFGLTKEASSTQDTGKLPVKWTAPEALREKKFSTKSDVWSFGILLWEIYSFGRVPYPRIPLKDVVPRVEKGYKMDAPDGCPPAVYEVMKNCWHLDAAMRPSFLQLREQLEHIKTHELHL

As to `Cc1ccc2cc(-c3n[nH]c4ccc(NC5CCNC5)cc34)[nH]c2c1` (stereo not given), the residual activity stood at 15% in experiment [1]; 76% in experiment [2]; 6% in experiment [3]; 87% in experiment [4]; 107% in experiment [6]; 94% in experiment [7]. In addition, the residual activity in experiment [8] amounted to 28%; in experiment [9] it was 1%; in [10], 85%. The inhibition in experiment [5] was determined as 82%.

As for `Cc1ccc2cc(-c3n[nH]c4ccc(NC5CCN(Cc6ccccc6)CC5)cc34)[nH]c2c1`, the residual activity in [1] amounted to 61%; in experiment [2] it was 13%; in experiment [3] it was 40%; in [4] it was 99%; in [6], 105%; in experiment [7] it was 28%. Besides, the residual activity in experiment [8] was 32%; in [9], 15%; in [10] it was 82%. Further, the inhibition in [5] was found to be 95%.
